The target in the test is T1, Or67d (Or67d^+[1]) (Drosophila melanogaster, UniProt Q9VT92).
T1 construct: native full-length receptor in trichoid T1 sensilla of living flies; with Odorant receptor coreceptor
T1 sequence (Q9VT92 1-391): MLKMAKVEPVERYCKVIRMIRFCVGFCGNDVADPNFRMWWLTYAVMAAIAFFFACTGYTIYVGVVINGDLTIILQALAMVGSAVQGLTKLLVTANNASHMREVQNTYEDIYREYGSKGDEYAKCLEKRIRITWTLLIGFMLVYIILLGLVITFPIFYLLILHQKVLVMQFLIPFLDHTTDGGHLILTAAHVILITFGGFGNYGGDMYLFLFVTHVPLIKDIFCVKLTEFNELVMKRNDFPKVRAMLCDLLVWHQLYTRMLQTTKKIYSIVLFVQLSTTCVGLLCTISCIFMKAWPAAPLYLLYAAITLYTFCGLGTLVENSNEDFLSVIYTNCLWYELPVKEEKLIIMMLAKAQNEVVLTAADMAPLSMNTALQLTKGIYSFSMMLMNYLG
T1 sequence (Q9VNB5 1-486 partner): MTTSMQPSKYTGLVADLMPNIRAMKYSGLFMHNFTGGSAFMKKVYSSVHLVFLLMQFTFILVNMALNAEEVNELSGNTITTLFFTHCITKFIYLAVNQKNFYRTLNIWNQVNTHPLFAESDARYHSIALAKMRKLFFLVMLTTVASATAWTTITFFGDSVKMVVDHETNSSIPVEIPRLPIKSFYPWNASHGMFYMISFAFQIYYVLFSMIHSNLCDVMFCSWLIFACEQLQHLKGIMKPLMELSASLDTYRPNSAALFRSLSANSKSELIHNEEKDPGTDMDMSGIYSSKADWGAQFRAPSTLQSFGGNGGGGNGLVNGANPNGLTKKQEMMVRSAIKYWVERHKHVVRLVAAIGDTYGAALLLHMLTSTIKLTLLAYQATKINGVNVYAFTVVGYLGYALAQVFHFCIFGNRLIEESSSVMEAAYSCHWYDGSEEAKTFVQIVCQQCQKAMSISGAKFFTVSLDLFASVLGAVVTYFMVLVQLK
Description: single sensillum recording, Drosophila T1 trichoid sensilla. The following applies: 10 μg source dose on filter paper; agonist; n = 7. The format is cell-based.

Molecules are shown by their SMILES.

Compound `CCCC/C=C\CCCCCCCCCCOC(C)=O` [Z11-16:OAc, (Z)-11-hexadecenyl acetate] had a spikes/sec of 87 ± 15.87 spikes/sec.

The record behind these values is article PMC4015405, “Specificity of the Receptor for the Major Sex Pheromone Component in Heliothis virescens” (Journal of Insect Science, 2013).
